# Measurements taken from PubChem BioAssay (NCI).
#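 Tested at 5 concentrations; 48 h exposure; 96-well plates; endpoints linearly interpolated, else capped at highest concentration. The concentration for 50% growth inhibition is given as GI50. Definition used: TGI = concentration required for complete inhibition of growth.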
# Tested on: MDA-MB-468 breast
# Assay: growth of human tumour cells (NCI), 48 h
SMILES,GI50,TGI
CCC(C)Oc1nc2c(c(=O)n(C)c(=O)n2C)n1C (stereo not given),> 100000 nM,> 100 µM
COC(=O)C(CCC(=O)CCl)N1C(=O)c2ccccc2C1=O (stereo not given),2110 nM,5.61 µM
Cc1cc(C)c2c(n1)sc1c(N)ncnc12,19900 nM,> 25 µM
Cc1ccc2nc(-c3ccc(OCC(=O)N=Nc4c(O)[nH]c5ccccc45)cc3)[nH]c2c1,2090 nM,4.9 µM
C=C1C(=O)O[C@H]2[C@H]1CC/C(COC(=O)NCc1ccc(OC)cc1)=C\CC[C@@]1(C)O[C@@H]21,352 nM,1.75 µM
CN(Cc1ccc(C(F)(F)F)cc1)CC(O)C(=O)Nc1ccc(Cl)cc1 (stereo not given),1370 nM,2.91 µM
CC(Nc1c(C#N)cnc2ccc(-c3cncc(-c4n[nH]c(=O)o4)c3)cc12)c1ccccc1 (stereo not given),1230 nM,3.66 µM
COc1cccc(CN(C)c2ccc(CO)c(Cl)c2)c1,20.9 nM,0.06 µM
CSc1ncc(Br)c(Sc2nc(N)nc3nc[nH]c23)n1,2360 nM,19.7 µM
NC(=O)[C@@H](CC1CC1)[C@@H](CCC(F)(F)F)C(=O)N[C@H]1N=C(c2ccccc2)c2cccc(F)c2NC1=O,> 100000 nM,> 100 µM
CN(C)CCNC(=O)c1ccc(-c2nc3ccc4[nH]ncc4c3c3c2C2CCC3C2)cc1 (stereo not given),1120 nM,3.14 µM
CCn1c(-c2cc3c([nH]c4ccccc43)c(-c3cccc(O)c3)n2)n[nH]c1=S,3190 nM,15.2 µM
CCN1CCN(Cc2ccc(NC(=O)Nc3nc4ccc(Oc5ccnc(C(=O)NC)c5)cc4s3)cc2C(F)(F)F)CC1,1660 nM,3.2 µM
c1cc(-c2nnc(SSc3ncnc4nc[nH]c34)o2)ccn1,251 nM,0.967 µM
N#C/C(=C\c1ccc([N+](=O)[O-])s1)c1nc2cc(Cl)ccc2s1,2360 nM,5.76 µM
CC1=C2C(=CC(C)(C)[C@@H]2O)C(=O)[C@](C)(O)C12CC2,12.9 nM,0.0362 µM
COc1cc2ncnc(-n3ncc4cc(NC(=O)Nc5ccc(Cl)c(Cl)c5)ccc43)c2cc1OC,2170 nM,4.52 µM
COc1ccc(/C=C/C(=O)c2ccc(-n3cc(CN4CCN(c5cc6c(cc5F)c(=O)c(C(=O)O)cn6C5CC5)CC4)nn3)cc2)cc1OC,1960 nM,5.24 µM
C#CCNC(=S)N/N=C(\C)c1ccccn1,33.5 nM,0.273 µM
NCCCCC1NC(=O)C(CC(=O)O)NC(=O)CNC(=O)C(CCCN=C(N)N)NC(=O)C(N)CSSCC(C(=O)O)NC(=O)C(CC(=O)O)NC(=O)C2CCCN2C(=O)CNC1=O (stereo not given),> 100000 nM,> 100 µM
COC(=O)C12CC(NC(=O)c3csc([C@@H](C[C@H](C(C)C)N(C)C(=O)[C@@H](NC(=O)[C@H]4CCCCN4C)C4CC4)OC(C)=O)n3)(C1)C2,16.9 nM,> 16.7 µM
CSc1ccc(/C(=N/N=C(N)N)c2ccccc2)cc1,451 nM,8.6 µM
O=C(/C=C/c1ccc(C(F)(F)F)cc1)Nc1ccc(C=C2c3ccccc3C(=O)c3ccccc32)cc1,1990 nM,20.8 µM
C1=C/COCc2cc(ccc2OCCN2CCCC2)Nc2nccc(n2)-c2ccc(o2)COC/1,1490 nM,3.18 µM
C=C/C(C)=C/C[C@]1(C)[C@H](C)[C@@H](OC(=O)CCC)[C@H](O)[C@@]23C(=C[C@H](OC)C[C@@H]12)[C@@H](OC(=O)CCC)O[C@H]3OC(C)=O,337 nM,1.24 µM
CCN(Cc1cc(F)ccc1F)c1ccc(CO)c(Cl)c1,16.4 nM,0.0411 µM
CCCCCCCCOC(=O)c1c(C)[nH]c(/C=C2\N=C(c3ccc[nH]3)C=C2OC)c1C,86.8 nM,2.67 µM
O=C(Nc1ccc(F)cc1F)c1cc(Cl)ccc1O,1640 nM,5.07 µM
O=S1(=O)N(Cc2ccccc2)[C@@H](Cc2ccccc2)[C@H](O)[C@H](O)[C@H](Cc2ccccc2)N1Cc1ccccc1,2980 nM,7.17 µM
CC1CN(S(=O)(=O)c2oc(-c3ccc(Cl)cc3)nc2C#N)CC(C)O1 (stereo not given),1870 nM,4.16 µM
